Publication PMC12706794, “Identification and Characterization of a Small-Molecule Inhibitor of the Pseudomonas aeruginosa SOS Response” (ACS Infectious Diseases, 2025)

Tests used:
[1] = target: T1, RecAPa*-induced full-length LexAPa autoproteolysis (Pseudomonas aeruginosa, UniProt P37452); test: RecAPa*-induced LexAPa autoproteolysis assay by SDS-PAGE; format: biochemical, P. aeruginosa; settings: 1 μM full-length LexAPa, 1 μM RecA*Pa, 1 h at 37 °C
T1 construct: Full-length LexAPa was used instead of FlAsH-LexAPa ^CTD; made in house; host or cells: E. coli BL21(DE3)
Protocol: To further validate the activity of A12 on RecA*Pa-LexAPa, an assay was performed using full-length LexAPa, and autoproteolysis was followed by SDS-PAGE in the presence of different concentrations of A12 (Figure E). Cleavage reactions were performed at 1 μM full-length LexAPa, initiated by the addition of 1 μM RecA*Pa, and stopped after a 1 h incubation at 37 °C, corresponding to the same conditions used for the FP assay.
SDS-PAGE was used as an orthogonal technique to FP to validate the dose-dependent inhibition of RecAPa*-induced LexAPa autocleavage by the selected hit compound.
Full-length LexAPa was used instead of FlAsH-LexAPa ^CTD, but reaction volumes, molar concentrations of reagents, incubation time, and temperature were kept the same as in the FP-based assay. Following 1 h of incubation at 37 °C in the presence of RecAPa*, reactions were stopped by adding Laemmli solubilization buffer and freezing the samples at −20 °C.
Samples were boiled 5 min at 95 °C before being loaded on 4–12% polyacrylamide gels. After Coomassie staining of the gels, the intensity of the bands corresponding to LexAPa and its autoproteolytic fragments was quantified using ImageJ. Data obtained from LexACTD/NTD bands densitometry were used to estimate LexA self-cleavage percent inhibition (scaling all the data from 0%, positive control, to 100%, negative control). […]

[2] = target: T2, LexAPa S125A / SOS-box dsDNA (Pseudomonas aeruginosa, UniProt P37452, S125A); test: EMSA of LexAPa S125A binding to SOS box dsDNA; format: biochemical, P. aeruginosa; settings: 60-fold molar excess of A12
T2 construct: Concerning full-length LexAPa ^S125A, a biphasic melting curve was obtained for the pure protein; made in house; host or cells: E. coli BL21(DE3)
Protocol: LexAPa DNA-binding activity–which has to be preserved for an anti-SOS strategy to be effective–resides on the NTD but requires dimerization via the CTD. In this context, to rule out any interfering effect of A12 on LexAPa binding to SOS-box DNA, an EMSA was performed by incubating LexAPa with operator dsDNA sequences and different doses of A12, before analyzing the mixtures on native polyacrylamide gels.
An EMSA of the SOS-box dsDNA in the presence of full-length LexAPaS125A and different concentrations of the hit compound was performed to observe the potential interference effects of the selected drug on LexAPa binding to operator DNA sequences.
SOS-box dsDNA was produced by mixing equimolar amounts of AT-repeat_For and AT-repeat_Rev oligonucleotides (Supplementary, Table S1) in annealing buffer (10 mM Tris–HCl, 50 mM NaCl, 1 mM EDTA, pH 7.5), heating at 95 °C for 5 min, and then allowing the mixture to cool down to room temperature slowly overnight. The E. coli “AT-repeat” operator sequence was used as it is fully compatible with the P. aeruginosa SOS-box consensus (CTG-N2-T-N7-CAG).
1 μM SOS-box dsDNA was incubated either alone or with 8 μM 6His-LexAPa ^S125A in EMSA buffer (50 mM Tris–HCl, 750 mM KCl, 0.5 mM EDTA, pH 7.4). […]

LexAPa = target: T3, LexAPa (Pseudomonas aeruginosa, UniProt P37452); test: ESI-MS analysis of LexAPa preincubated with A12; format: binding, P. aeruginosa; settings: 2 mM A12, 2 h at 25 °C; disulfide bond at Cys104, lost with 5 mM DTT
T3 construct: different LexAPa variants (FlAsH-LexAPa ^CTD vs full-length LexAPa) were used in the two assays; made in house; host or cells: E. coli BL21(DE3)
Protocol: Then, ESI-MS analysis was carried out on both RecAPa and LexAPa alone and preincubated with A12 (referred to as RecAPa-A12 and LexAPa-A12, respectively).
MS analysis was carried out on 5 μL samples of compound A12 (2 mM), of the proteins 6His-LexAPa and 6His-RecAPa (50 μM), and of the same proteins incubated with 2 mM A12 (2 h incubation at 25 °C, 10% v/v DMSO in 100 mM NaHCO3 pH 7.0). Aliquots of the latter samples were treated with 5 mM dithiothreitol (DTT) for 1 h at 25 °C before being buffer-exchanged in 100 mM NaHCO3 at pH 7.0. Samples were analyzed by an electrospray ionization (ESI) mass spectrometer equipped with a Xevo G2-XS ESI-Q-TOF mass spectrometer (Waters Corporation, Milford, Massachusetts, USA). Measurements were carried out at 1.5–1.8 kV capillary voltage and 30–40 V cone voltage.
Tryptic digestion was obtained at a 1:20 trypsin to protein ratio (by weight) after the incubation of the proteins (6His-LexAPa and 6His-RecAPa) with chemical compound A12. The reaction was left at 37 °C overnight and then stopped by freezing at – 20 °C. Proteolytic mixtures were analyzed by LC–MS, using an Agilent AdvanceBio Peptide Map column (2.1 × 150 mm × 2.7 μm; Santa Clara, CA, USA) connected to an Acquity H-Class instrument (Waters Corporation, Milford, Massachusetts, USA). […]

T2 sequence (P37452 2-204 S125A): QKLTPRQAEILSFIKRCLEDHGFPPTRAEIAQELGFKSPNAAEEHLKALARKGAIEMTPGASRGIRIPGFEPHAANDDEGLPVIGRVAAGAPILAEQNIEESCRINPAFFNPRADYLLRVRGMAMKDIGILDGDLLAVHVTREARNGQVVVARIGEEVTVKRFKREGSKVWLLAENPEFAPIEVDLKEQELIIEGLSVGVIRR
T3 sequence (P37452 whole entry): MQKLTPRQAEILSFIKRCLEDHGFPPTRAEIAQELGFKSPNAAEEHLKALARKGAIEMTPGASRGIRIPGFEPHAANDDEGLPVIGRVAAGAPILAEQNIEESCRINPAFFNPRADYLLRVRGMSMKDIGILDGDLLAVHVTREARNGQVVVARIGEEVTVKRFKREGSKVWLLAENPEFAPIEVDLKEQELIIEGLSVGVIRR
T1 sequence (P37452 2-204): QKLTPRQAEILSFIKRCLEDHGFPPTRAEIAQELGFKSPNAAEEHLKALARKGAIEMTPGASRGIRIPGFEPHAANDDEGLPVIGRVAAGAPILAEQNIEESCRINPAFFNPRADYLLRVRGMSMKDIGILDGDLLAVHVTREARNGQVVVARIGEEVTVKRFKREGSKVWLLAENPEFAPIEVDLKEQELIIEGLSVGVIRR

O=C(O)CCNc1ccccc1S [A12, 3-(2-sulfanylanilino)propanoic acid]
IC50 [1]: 58 ± 5 µM | LexAPa SOS box DNA-binding activity in the presence of A12 [2]: retained full SOS box DNA-binding activity | Mass difference of A12-modified LexAPa versus unmodified protein (LexAPa): 195 Da
